Laboratory results reported in paper PMC5688144, “Assay interference and off-target liabilities of reported histone acetyltransferase inhibitors” (Nature Communications, 2017).
Entries after “also recorded” stand apart in the source; their conditions may differ.

Columns and labels:
MYST2 = settings: cited from earlier work
PCAF = target: T1, PCAF (Homo sapiens, UniProt Q92831); test: PCAF activity in presence and absence of DTT; format: biochemical; settings: 10 and 100 μM compound
T1 construct: Reaction Biology Corporation (assays run by this contract lab)
Description: (§1) Selectivity profiles vs. HATs, HDACs, SIRTs, HMTs, proteases, kinases, and phosphatases were performed by Reaction Biology Corporation (Malvern, PA; Fig. 3 and Supplementary Fig. 3). Percent activity was normalized to DMSO-only controls. Reference control compounds were included in each assay.
Relevant reaction procedures for each target class are briefly summarized (see reactionbiology.com for additional details). HATs: reaction buffer 50 mM Tris–HCl, pH 8.0, 50 mM NaCl, 0.1 mM EDTA, ± 1 mM DTT, 1 mM PMSF, 1% DMSO; substrate [^3H]-acetyl-CoA; reaction time 1 h; end-point measurement. […] HMTs: reaction buffer 50 mM Tris–HCl, pH 8.0, 0.01% Brij35, 1 mM EDTA, 1 mM DTT, 1 mM PMSF, 1% DMSO (EZH2); reaction buffer 50 mM Tris–HCl, pH 7.5, 5 mM EDTA, 0.01% Brij35, 5 mM DTT, 0.1 mM PMSF, 5% glycerol, 1% DMSO; 50 mM Tris–HCl, pH 8.5, 5 mM MgCl2, 50 mM NaCl, 0.01 Brij35, 1 mM DTT, 1% DMSO (G9a); methyl donor 1 μM S-Adenosyl-L-[methyl-^3H]-methionine; substrate 5 μM histone proteins or 0.05 mg mL^−1 nucleosomes; pre-incubation time 10–15 min; reaction time 0.5–1 h; end-point measurement. Caspases: reaction buffer 50 mM HEPES, pH 7.4, 1 M citrate, 100 mM NaCl, 0.01% CHAPS, 0.1 mM EDTA, 10 mM DTT; fluorogenic peptide substrate; pre-incubation time 10 min; reaction time 2 h; time-course measurement. […]

HEK293T and MCF7 cells [1] = test: Cell proliferation by cell confluence; format: cell-based; settings: 30 µM compound; MCF7 and HEK293T cells
Description: Cells were cultured in DMEM supplemented with 10% fetal bovine serum (Winsent), penicillin (100 U mL^−1), and streptomycin (100 µg mL^−1). Compounds dissolved in DMSO or matching DMSO-only controls were added to cells for indicated times. Compound effects in cells were determined as described[67] and are outlined below.
(§2) For cell growth analyses, cells were seeded in 96-well plates, treated with compounds for the indicated times, and monitored over time in a live cell Incucyte™ ZOOM imager (Essen Biosciences). To label apoptotic and dead cells, caspase 3/7 activatable DEVD recognition motif NucView™ 488 DNA intercalating dye (1:1000 dilution, Essen Biosciences) and SYTOX™ green nucleic acid stain (1:1000 dilution, Invitrogen) were used respectively, following manufacturer instructions.

HEK293T and MCF7 cells [2] = test: Membrane permeability (SYTOX green uptake); format: cell-based; settings: for membrane permeability: Sytox green dead-cell dye uptake
Description: as §2

[3] = test system: panel of proteases, kinases, and phosphatases; test: Pilot selectivity panel (Reaction Biology); format: biochemical; settings: 10 µM compound
Description: as §1
Relevant reaction procedures for each target class are briefly summarized (see reactionbiology.com for additional details). HATs: reaction buffer 50 mM Tris–HCl, pH 8.0, 50 mM NaCl, 0.1 mM EDTA, ± 1 mM DTT, 1 mM PMSF, 1% DMSO; substrate [^3H]-acetyl-CoA; reaction time 1 h; end-point measurement. […] HMTs: reaction buffer 50 mM Tris–HCl, pH 8.0, 0.01% Brij35, 1 mM EDTA, 1 mM DTT, 1 mM PMSF, 1% DMSO (EZH2); reaction buffer 50 mM Tris–HCl, pH 7.5, 5 mM EDTA, 0.01% Brij35, 5 mM DTT, 0.1 mM PMSF, 5% glycerol, 1% DMSO; 50 mM Tris–HCl, pH 8.5, 5 mM MgCl2, 50 mM NaCl, 0.01 Brij35, 1 mM DTT, 1% DMSO (G9a); methyl donor 1 μM S-Adenosyl-L-[methyl-^3H]-methionine; substrate 5 μM histone proteins or 0.05 mg mL^−1 nucleosomes; pre-incubation time 10–15 min; reaction time 0.5–1 h; end-point measurement. Caspases: reaction buffer 50 mM HEPES, pH 7.4, 1 M citrate, 100 mM NaCl, 0.01% CHAPS, 0.1 mM EDTA, 10 mM DTT; fluorogenic peptide substrate; pre-incubation time 10 min; reaction time 2 h; time-course measurement. Kinases: reaction buffer 20 mM HEPES, pH 7.5, 10 mM MgCl2, 1 mM EGTA, 0.02% Brij35, 0.02 mg mL^−1 BSA, 0.1 mM Na3VO4, 2 mM DTT, 1% DMSO; substrate [^33P]-ATP; reaction time 2 h; end-point measurement.

Rtt109 = settings: cited from earlier work
200 kinases = test: Expanded kinase profile (Cerep/Eurofins); format: biochemical; settings: 10 μM compound
Description: Assays were performed using either homogeneous time-resolved fluorescence or LANCE® time-resolved-FRET formats (see cerep.fr for additional details). […] Reference control compounds were included in each assay.

SAS = test system: SAS; parameters: method as in ref 5 (Supplementary References); settings: @ 10 µM; ref 5 (Supplementary References); cited from earlier work
MOZ = settings: @ 10 µM; ref 5 (Supplementary References); cited from earlier work
p300 = target: T2, p300 (Homo sapiens, UniProt Q09472); settings: read-out: IC50 (µM), p300; original report; 22 (Supplementary References); cited from earlier work
T2 construct: Reaction Biology Corporation (assays run by this contract lab)

[4] = test system: caspase 3/7 activity in HEK293T and MCF7 cells; test: Live-cell caspase 3/7 activity; format: cell-based; settings: 24 h after compound addition
Description: as §2

MOF = test system: MOF; parameters: method as in ref 19, 26 (Supplementary References); settings: original report; 26 (Supplementary References); cited from earlier work
KAT5 = test system: KAT5; parameters: method as in ref 22 (Supplementary References); settings: original report; ref 22 (Supplementary References); cited from earlier work
MYST4 = settings: original report; ref 22 (Supplementary References); cited from earlier work

T1 sequence (Q92831 whole entry, species assumed): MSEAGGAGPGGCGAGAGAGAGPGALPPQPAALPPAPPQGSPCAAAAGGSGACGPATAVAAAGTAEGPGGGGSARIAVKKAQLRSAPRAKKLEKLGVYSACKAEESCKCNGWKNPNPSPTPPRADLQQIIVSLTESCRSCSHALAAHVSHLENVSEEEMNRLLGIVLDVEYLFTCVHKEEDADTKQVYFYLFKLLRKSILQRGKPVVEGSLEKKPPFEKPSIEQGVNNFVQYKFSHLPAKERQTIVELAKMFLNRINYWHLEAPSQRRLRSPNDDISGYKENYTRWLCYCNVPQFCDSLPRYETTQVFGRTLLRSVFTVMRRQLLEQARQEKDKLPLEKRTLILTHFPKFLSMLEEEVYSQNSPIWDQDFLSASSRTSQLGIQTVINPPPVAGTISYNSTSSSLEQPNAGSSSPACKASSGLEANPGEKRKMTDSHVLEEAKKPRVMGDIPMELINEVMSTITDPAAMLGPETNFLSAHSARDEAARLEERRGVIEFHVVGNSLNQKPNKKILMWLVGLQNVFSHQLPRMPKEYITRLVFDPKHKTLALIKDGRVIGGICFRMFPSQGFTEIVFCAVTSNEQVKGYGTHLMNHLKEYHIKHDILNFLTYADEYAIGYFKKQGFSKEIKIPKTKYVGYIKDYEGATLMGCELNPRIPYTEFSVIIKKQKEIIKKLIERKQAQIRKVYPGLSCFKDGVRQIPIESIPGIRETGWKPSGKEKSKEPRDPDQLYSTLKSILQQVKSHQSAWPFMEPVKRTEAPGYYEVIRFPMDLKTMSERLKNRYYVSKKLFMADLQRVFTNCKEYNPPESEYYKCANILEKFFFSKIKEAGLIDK
T2 sequence (Q09472 whole entry, species assumed): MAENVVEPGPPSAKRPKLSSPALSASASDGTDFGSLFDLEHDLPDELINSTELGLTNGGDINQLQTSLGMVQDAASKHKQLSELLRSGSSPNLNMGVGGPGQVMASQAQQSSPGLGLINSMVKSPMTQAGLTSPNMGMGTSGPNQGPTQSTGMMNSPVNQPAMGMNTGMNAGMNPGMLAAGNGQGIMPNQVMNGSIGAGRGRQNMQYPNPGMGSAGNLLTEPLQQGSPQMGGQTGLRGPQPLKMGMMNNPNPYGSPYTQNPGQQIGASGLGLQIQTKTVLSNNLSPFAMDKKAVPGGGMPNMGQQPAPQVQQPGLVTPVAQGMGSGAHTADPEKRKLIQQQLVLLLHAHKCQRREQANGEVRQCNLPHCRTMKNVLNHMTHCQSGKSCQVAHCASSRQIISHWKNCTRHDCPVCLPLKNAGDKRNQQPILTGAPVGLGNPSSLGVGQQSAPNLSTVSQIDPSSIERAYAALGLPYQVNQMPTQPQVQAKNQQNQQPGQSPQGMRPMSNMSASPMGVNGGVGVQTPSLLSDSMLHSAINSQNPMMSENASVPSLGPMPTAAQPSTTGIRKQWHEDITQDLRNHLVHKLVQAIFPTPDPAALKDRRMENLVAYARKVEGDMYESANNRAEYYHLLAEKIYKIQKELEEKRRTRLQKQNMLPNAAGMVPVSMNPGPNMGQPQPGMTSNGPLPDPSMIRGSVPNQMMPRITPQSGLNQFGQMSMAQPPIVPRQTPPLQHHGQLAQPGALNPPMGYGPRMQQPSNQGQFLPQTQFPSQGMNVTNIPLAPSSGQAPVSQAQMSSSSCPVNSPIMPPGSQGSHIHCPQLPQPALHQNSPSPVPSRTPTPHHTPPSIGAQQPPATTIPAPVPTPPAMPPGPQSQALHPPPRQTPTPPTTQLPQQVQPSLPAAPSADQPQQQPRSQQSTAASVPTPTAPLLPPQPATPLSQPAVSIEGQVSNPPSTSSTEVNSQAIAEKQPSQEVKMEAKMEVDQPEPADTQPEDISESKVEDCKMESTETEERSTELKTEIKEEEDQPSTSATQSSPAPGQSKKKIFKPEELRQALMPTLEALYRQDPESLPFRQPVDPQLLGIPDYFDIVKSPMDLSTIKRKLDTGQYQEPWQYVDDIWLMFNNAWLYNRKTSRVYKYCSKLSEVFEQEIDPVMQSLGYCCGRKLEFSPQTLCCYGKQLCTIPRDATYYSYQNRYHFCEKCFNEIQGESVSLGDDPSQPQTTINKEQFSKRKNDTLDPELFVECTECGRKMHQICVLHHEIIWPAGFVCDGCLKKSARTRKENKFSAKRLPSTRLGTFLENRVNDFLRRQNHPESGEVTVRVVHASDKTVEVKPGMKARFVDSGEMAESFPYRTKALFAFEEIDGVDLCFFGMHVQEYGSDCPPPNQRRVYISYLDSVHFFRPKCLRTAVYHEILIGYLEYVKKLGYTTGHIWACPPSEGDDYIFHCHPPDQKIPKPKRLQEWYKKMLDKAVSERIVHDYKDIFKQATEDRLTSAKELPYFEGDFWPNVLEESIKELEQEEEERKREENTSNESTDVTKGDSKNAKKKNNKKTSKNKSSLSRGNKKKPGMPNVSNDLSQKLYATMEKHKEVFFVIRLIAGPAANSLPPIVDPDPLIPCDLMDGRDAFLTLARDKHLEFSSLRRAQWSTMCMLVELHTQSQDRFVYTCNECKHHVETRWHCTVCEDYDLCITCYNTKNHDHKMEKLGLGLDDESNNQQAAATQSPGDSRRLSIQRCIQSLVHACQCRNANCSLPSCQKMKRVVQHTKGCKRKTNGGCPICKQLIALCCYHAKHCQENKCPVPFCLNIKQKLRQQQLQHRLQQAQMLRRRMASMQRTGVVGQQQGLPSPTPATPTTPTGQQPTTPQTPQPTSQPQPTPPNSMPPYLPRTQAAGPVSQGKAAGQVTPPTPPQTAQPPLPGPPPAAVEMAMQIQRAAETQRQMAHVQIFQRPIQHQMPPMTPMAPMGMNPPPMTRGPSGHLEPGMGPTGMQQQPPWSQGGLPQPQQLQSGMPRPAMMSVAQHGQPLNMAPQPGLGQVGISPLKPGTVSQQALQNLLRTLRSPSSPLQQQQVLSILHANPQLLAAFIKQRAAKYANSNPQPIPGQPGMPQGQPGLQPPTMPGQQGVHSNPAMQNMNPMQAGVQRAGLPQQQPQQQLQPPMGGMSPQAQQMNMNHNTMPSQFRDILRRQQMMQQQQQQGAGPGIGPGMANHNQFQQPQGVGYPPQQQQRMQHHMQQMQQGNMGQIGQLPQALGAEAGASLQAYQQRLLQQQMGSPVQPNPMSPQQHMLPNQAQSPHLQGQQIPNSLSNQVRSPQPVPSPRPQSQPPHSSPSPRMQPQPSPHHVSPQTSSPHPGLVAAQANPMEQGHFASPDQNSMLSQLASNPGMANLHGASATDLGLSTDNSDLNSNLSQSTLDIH

Molecule: COc1ccc(S(=O)(=O)ON=C2C=C(C)C(=O)C(C)=C2)cc1 [Compound 5, L002]
- % inhibition, MYST2 (MYST2; @ 100 µM, HotSpot, ref 9 (Supplementary References)): 1%
- inhibition of PCAF in the absence of DTT compared with DTT present (PCAF): notable exceptions

Molecule: Plumbagin [Compound 8]
- cell death by cell confluence studies (HEK293T and MCF7 cells [1]): causes cell death
- cytotoxicity by membrane integrity studies (HEK293T and MCF7 cells [2]; 30 µM compound, MCF7 cells): cytotoxic
- membrane permeability (HEK293T and MCF7 cells [2]): increase; also recorded: dose-dependent increases

Molecule: CC1=NN(c2ccc(C(=O)O)cc2)C(=O)/C1=C/c1ccc(-c2cc(C)c(C)cc2[N+](=O)[O-])o1 [Compound 1, C646]
- inhibition against the tested kinases and phosphatases [3]: low levels of inhibition
- proteases with > 50% inhibition ([3]; 17 proteases): 7 out of 17
- % inhibition, Rtt109 (Rtt109; @ 10 µM, ref 5 (Supplementary References)): < 10%
- kinases with >50% inhibition (200 kinases): 26 out of 200
- % inhibition, SAS (SAS): < 10%
- % inhibition, MOZ (MOZ): < 10%

Molecule: Cc1cc2c(C(C)C)c(O)c(O)c(C=O)c2c(O)c1-c1c(C)cc2c(C(C)C)c(O)c(O)c(C=O)c2c1O [Compound 16, Gossypol]
- IC50 (p300): ~25 µM

Molecule: CCCC1(c2ccccc2)NC(=O)N(CC(=O)N(C)Cc2c(F)cccc2Cl)C1=O (stereo not drawn) [Compound 21, N-[(2-chloro-6-fluorophenyl)methyl]-2-(2,5-dioxo-4-phenyl-4-propylimidazolidin-1-yl)-N-methylacetamide]
- IC50 (Rtt109; original report, ref 25 (Supplementary References)): 0.056 µM

Molecule: O=c1c2cccnc2sn1Cc1ccc(C(F)(F)F)cc1 [Compound 3, PU141]
- activity vs. most of the targets tested ([3]; proteases, kinases, phosphatases): little activity
- inhibition of PCAF in the absence of DTT compared with DTT present (PCAF): notable exceptions

Molecule: O=C1/C(=C/c2ccc(O)c(Br)c2)CCC/C1=C\c1ccc(O)c(Br)c1 [Compound 12, HAT inhibitor II]
- caspase 3/7 activity [4]: induce; also recorded: dose-dependent increases
- membrane permeability (HEK293T and MCF7 cells [2]): increase; also recorded: dose-dependent increases

Molecule: CCCCCCCc1ccc(CCc2cccc(O)c2C(=O)O)cc1 [Compound 15, MG 149]
- IC50 (MOF): 47 µM

Molecule: COc1ccc(/C(Cl)=C(/C=O)c2ccc(OC)cc2)cc1 [Compound 18, Windorphen]
- IC50 (MYST2; original report, ref 22 (Supplementary References)): > 100 µM
- IC50 (KAT5): > 100 µM
- IC50 (MYST4): > 100 µM
